This passage reports IC50 results from patent publication US8575321B2, “Benzylbenzene derivatives and methods of use” (Theracos, Inc., priority 2007, dated 2013).

One test addresses T1, human SGLT2 (Homo sapiens, UniProt P31639).
T1 construct: A full-length cDNA clone expressing human SGLT2
T1 sequence (P31639 1-672): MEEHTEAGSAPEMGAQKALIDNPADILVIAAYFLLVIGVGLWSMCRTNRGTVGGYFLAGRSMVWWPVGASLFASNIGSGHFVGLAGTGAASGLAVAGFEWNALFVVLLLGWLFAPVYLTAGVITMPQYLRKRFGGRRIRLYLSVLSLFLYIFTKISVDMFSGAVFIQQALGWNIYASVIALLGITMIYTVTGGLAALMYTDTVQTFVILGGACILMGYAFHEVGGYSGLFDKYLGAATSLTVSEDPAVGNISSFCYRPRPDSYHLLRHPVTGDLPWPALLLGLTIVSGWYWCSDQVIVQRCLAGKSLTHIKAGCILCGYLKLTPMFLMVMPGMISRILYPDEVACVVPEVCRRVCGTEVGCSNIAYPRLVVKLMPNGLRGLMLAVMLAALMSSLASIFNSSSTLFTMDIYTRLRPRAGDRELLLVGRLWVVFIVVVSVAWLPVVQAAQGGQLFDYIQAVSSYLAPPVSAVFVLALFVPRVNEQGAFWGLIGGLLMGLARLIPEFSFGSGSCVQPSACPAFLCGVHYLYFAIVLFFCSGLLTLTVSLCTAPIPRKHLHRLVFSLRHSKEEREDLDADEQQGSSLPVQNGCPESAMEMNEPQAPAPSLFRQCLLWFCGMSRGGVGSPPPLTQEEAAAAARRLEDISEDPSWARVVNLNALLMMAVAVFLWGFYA
The test can be described thus: Methyl-α-D-[U-14C]glucopyranoside uptake assay in HEK293.ETN cells stably expressing human SGLT2. The note with it: 1.5 h incubation. Type of test: cell-based. From the text: A full-length cDNA clone expressing human SGLT2 (GenScript Corporation) was subcloned into Hind III and Not I sites of pEAK15 expression vector. Clones harboring the cDNA inserts were identified by restriction analysis.
Plasmid containing human SGLT2 was linearized with Nsi I and purified by agarose gel electrophoresis. Using Lipofectamine 2000 Transfection Reagent (Invitrogen Corporation), DNA was transfected into HEK293.ETN cells and cultured in Dulbecco's Modified Eagle Medium (DMEM) containing 10% fetal bovine serum (FBS) at 37° C. under 5% CO2 for 24 h. Transfectants were selected in the same growth medium supplemented with puromycin (Invitrogen Corporation) for two weeks. Puromycin-resistant cells were recovered and seeded on a fresh 96-well plate (single cell per well) and cultured in the presence of puromycin until cells became confluent. Puromycin-resistant clones were evaluated for SGLT2 activity in the methyl-α-D-[U-^14C]glucopyranoside uptake assay described below.
(§1) Cells expressing SGLT1 or SGLT2 were seeded on 96-well ScintiPlate scintillating plates (PerkinElmer, Inc.) in DMEM containing 10% FBS (1×10^5 cells per well in 100 μl medium) incubated at 37° C. under 5% CO2 for 48 h prior to the assay. Cells were washed twice with 150 μl of either sodium buffer (137 mM NaCl, 5.4 mM KCl, 2.8 mM CaCl2, 1.2 mM MgCl2, 10 mM tris(hydroxymethyl)aminomethane/N^2-hydroxyethylpiperazine-N′-ethanesulfonic acid [Tris/Hepes], pH 7.2) or sodium-free buffer (137 mM N-methyl-glucamine, 5.4 mM KCl, 2.8 mM CaCl2, 1.2 mM MgCl2, 10 mM Tris/Hepes, pH 7.2). Test compound in 50 μl each of sodium or sodium-free buffer containing 40 μCi/ml methyl-α-D-[U-^14C]glucopyranoside (Amersham Biosciences/GE Healthcare), either with (symbols in parentheses) or without (symbols without parentheses) 25% human serum, was added per well of a 96-well plate and incubated at 37° C. with shaking for either 2 h (SGLT1 assay) or 1.5 h (SGLT2 assay). Cells were washed twice with 150 μl of wash buffer (137 mM N-methylglucamine, 10 mM Tris/Hepes, pH 7.2) and methyl-α-D-[U-^14C]glucopyranoside uptake was quantitated using a TopCount scintillation counter (PerkinElmer, Inc.). Sodium-dependent glucopyranoside uptake was measured by subtracting the values obtained with sodium-free buffer from those obtained using sodium buffer (average of triplicate determinations).

Another test addresses T2, human SGLT1 (Homo sapiens, UniProt P13866).
T2 construct: Full-length human SGLT1 cDNA on pDream2.1 expression vector; host or cells: COS-7 cells (American Type Culture Collection)
T2 sequence (P13866 1-664): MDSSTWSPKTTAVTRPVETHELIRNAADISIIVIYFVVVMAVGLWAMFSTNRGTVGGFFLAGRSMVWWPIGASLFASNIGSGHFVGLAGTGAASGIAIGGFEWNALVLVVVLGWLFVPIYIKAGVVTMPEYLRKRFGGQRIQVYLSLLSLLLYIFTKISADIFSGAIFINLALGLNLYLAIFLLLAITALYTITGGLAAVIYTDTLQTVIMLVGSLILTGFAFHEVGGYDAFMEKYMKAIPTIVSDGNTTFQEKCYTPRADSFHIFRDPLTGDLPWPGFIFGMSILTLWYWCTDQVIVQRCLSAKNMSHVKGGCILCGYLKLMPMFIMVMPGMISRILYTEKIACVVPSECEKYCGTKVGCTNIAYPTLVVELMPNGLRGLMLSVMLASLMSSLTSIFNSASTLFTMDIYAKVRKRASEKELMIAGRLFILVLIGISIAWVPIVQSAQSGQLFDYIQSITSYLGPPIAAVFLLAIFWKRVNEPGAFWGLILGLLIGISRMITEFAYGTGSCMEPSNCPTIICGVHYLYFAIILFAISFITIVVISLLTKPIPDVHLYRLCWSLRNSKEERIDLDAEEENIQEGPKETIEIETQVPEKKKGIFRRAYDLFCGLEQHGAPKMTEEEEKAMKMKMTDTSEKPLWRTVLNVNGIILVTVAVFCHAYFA
Description: Methyl-α-D-[U-14C]glucopyranoside uptake assay in COS-7 cells expressing human SGLT1. The note with it: 2 h incubation. Format: cell-based. The protocol:
Full-length human SGLT1 cDNA on pDream2.1 expression vector was obtained from GenScript Corporation and propagated in Escherichia coli strain DH5α using Luria-Bertani (LB) medium containing ampicillin. Plasmid DNA was isolated using the QIAGEN Plasmid Midi Kit (QIAGEN Inc.). […] Transfected cells were stored in DMEM containing 10% dimethyl sulfoxide (DMSO) at −80° C.
as §1

Where [1] appears, read: incubation with 25% human serum (symbols in parentheses).
The mark [2] stands for this setting: without human serum (symbols without parentheses).

By IC50 is commonly meant the point on the concentration scale where inhibition reaches its midpoint. Consider `OC[C@H]1O[C@@H](c2ccc(Cl)c(Cc3ccc(COC4CC4)cc3)c2)[C@H](O)[C@@H](O)[C@@H]1O` [Compound CX, (2S,3R,4R,5S,6R)-2-(4-chloro-3-(4-(cyclopropoxymethyl)benzyl)phenyl)-6-(hydroxymethyl)tetrahydro-2H-pyran-3,4,5-triol], for which the IC50 on human SGLT2 (setting [1]) is less than 1 µM; at human SGLT1 (setting [1]) it was more than 10 µM.

In the case of `CC(COc1ccc(Cc2cc([C@@H]3O[C@H](CO)[C@@H](O)[C@H](O)[C@H]3O)ccc2Cl)cc1)OC1CC1` (stereo partly drawn) [Compound DC, (2S,3R,4R,5S,6R)-2-(4-chloro-3-(4-(2-cyclopropoxypropoxy)benzyl)phenyl)-6-(hydroxymethyl)tetrahydro-2H-pyran-3,4,5-triol], the concentration for half-maximal inhibition (IC50) is less than 1 µM on human SGLT2 (setting [1]) and 1 to 10 µM at human SGLT1 (setting [1]).

For the compound `OC[C@H]1O[C@@H](c2ccc(Cl)c(Cc3ccc(CCCOC4CC4)cc3)c2)[C@H](O)[C@@H](O)[C@@H]1O` [Compound DJ, (2S,3R,4R,5S,6R)-2-(4-chloro-3-(4-(3-cyclopropoxypropyl)benzyl)phenyl)-6-(hydroxymethyl)tetrahydro-2H-pyran-3,4,5-triol], the 50% inhibitory concentration (IC50) at human SGLT2 (setting [1]) was less than 1 µM; on human SGLT1 (setting [1]), 1 to 10 µM.

Consider `COCCOCCOc1ccc(Cc2cc([C@@H]3O[C@H](CO)[C@@H](O)[C@H](O)[C@H]3O)ccc2Cl)cc1` [Compound M, (2S,3R,4R,5S,6R)-2-(4-chloro-3-(4-(2-(2-methoxyethoxy)ethoxy)benzyl)phenyl)-6-(hydroxymethyl)tetrahydro-2H-pyran-3,4,5-triol], for which the figures for the IC50 at human SGLT2 (setting [2]) and at human SGLT1 (setting [2]) were less than 1 µM and 1 to 10 µM, respectively.

As for `C=CCOCCOc1ccc(Cc2cc([C@@H]3O[C@H](CO)[C@@H](O)[C@H](O)[C@H]3O)ccc2Cl)cc1` [Compound P, (2S,3R,4R,5S,6R)-2-(3-(4-(2-(allyloxy)ethoxy)benzyl)-4-chlorophenyl)-6-(hydroxymethyl)tetrahydro-2H-pyran-3,4,5-triol], the results for the IC50 on human SGLT2 (setting [1]) and at human SGLT1 (setting [1]) were less than 1 µM and 1 to 10 µM, respectively.

Consider `C#CCOCCOc1ccc(Cc2cc([C@@H]3O[C@H](CO)[C@@H](O)[C@H](O)[C@H]3O)ccc2Cl)cc1` [Compound R, (2S,3R,4R,5S,6R)-2-(4-chloro-3-(4-(2-(prop-2-ynyloxy)ethoxy)benzyl)phenyl)-6-(hydroxymethyl)tetrahydro-2H-pyran-3,4,5-triol], for which the IC50 on human SGLT2 (setting [1]) was less than 1 µM; at human SGLT1 (setting [1]), 1 to 10 µM.

Turning to `C#CCOCC(C)Oc1ccc(Cc2cc([C@@H]3O[C@H](CO)[C@@H](O)[C@H](O)[C@H]3O)ccc2Cl)cc1` (stereo partly drawn) [Compound T, (2S,3R,4R,5S,6R)-2-(4-chloro-3-(4-(1-(prop-2-ynyloxy)propan-2-yloxy)benzyl)phenyl)-6-(hydroxymethyl)tetrahydro-2H-pyran-3,4,5-triol], the figures for the IC50 at human SGLT2 (setting [1]) and on human SGLT1 (setting [1]) were less than 1 µM and more than 10 µM, respectively.

`OCC#CCOc1ccc(Cc2cc([C@@H]3O[C@H](CO)[C@@H](O)[C@H](O)[C@H]3O)ccc2Cl)cc1` [Compound X, (2S,3R,4R,5S,6R)-2-(4-chloro-3-(4-(4-hydroxybut-2-ynyloxy)benzyl)phenyl)-6-(hydroxymethyl)tetrahydro-2H-pyran-3,4,5-triol]: the IC50 was less than 1 µM on human SGLT2 (setting [1]) and 1 to 10 µM at human SGLT1 (setting [1]).

On to `COCC#CCOc1ccc(Cc2cc([C@@H]3O[C@H](CO)[C@@H](O)[C@H](O)[C@H]3O)ccc2Cl)cc1` [Compound Z, (2S,3R,4R,5S,6R)-2-(4-chloro-3-(4-(4-methoxybut-2-ynyloxy)benzyl)phenyl)-6-(hydroxymethyl)tetrahydro-2H-pyran-3,4,5-triol], for which the IC50 was less than 1 µM at human SGLT2 (setting [1]) and more than 10 µM on human SGLT1 (setting [1]).
